How the values were obtained:
SKBR3 cells = experiment: Growth to high density and in low serum, SKBR3; format: cell-based, human; conditions: 10 μM
Protocol: FIGS. 2A-G illustrate effects of 968 on the transforming activity of constitutively active Rho GTPases and human breast cancer cells. […] Cells were scored after 14 days and plotted as the percentage of the total number of colonies greater than 50 μm in diameter. Data represent the average of 3 experiments (±s.d.). […] Data represent the average of 3 experiments (±s.d.). […] Data represent the average of 3 experiments (±s.d.). […] After 24 hours at 37° C., the migratory cells were fixed, stained with GIEMSA, and counted. Data represent the average of 3 experiments (±s.d.). […] Data represent the average of 3 experiments (±s.d.). […] Data represent the average of 3 experiments (±s.d.). […] Data represent the average of 3 experiments (±s.d.).
100%=620 moles of glutamine hydrolyzed per minute per mole of enzyme. Data represent the average of 3 experiments (±s.d.). […] Following precipitation of the beads and re-suspension, the samples were analyzed by Western blotting with anti-V5 antibody. […] Data represent the average of 3 experiments (±s.d.). […] Data represent the average of 3 experiments (±s.d.). […] Data represent the average of 3 experiments (±s.d.). FIG. 3E NIH 3T3 cells transiently expressing Dbl were assayed for focus formation in the presence of 10 μM 968 alone or together with 7 mM dimethyl α-ketoglutarate. […] 100%=680 nM glutamine hydrolyzed per minute per 10^5 cells. […]

[1] = biological target: T1, GA activity of NIH 3T3 cells stably expressing Dbl or Cdc42(F28L) (Mus musculus, UniProt D3Z7P3); experiment: GA activity in mitochondrial fractions of treated transformed NIH 3T3 cells; format: cell-based; conditions: 10 μM, 48 hours
T1 construct: endogenous in cells; host or cells: NIH 3T3 cells stably expressing Dbl or Cdc42(F28L); mitochondrial fraction
T1 sequence (D3Z7P3 55-603 isoform D3Z7P3-2): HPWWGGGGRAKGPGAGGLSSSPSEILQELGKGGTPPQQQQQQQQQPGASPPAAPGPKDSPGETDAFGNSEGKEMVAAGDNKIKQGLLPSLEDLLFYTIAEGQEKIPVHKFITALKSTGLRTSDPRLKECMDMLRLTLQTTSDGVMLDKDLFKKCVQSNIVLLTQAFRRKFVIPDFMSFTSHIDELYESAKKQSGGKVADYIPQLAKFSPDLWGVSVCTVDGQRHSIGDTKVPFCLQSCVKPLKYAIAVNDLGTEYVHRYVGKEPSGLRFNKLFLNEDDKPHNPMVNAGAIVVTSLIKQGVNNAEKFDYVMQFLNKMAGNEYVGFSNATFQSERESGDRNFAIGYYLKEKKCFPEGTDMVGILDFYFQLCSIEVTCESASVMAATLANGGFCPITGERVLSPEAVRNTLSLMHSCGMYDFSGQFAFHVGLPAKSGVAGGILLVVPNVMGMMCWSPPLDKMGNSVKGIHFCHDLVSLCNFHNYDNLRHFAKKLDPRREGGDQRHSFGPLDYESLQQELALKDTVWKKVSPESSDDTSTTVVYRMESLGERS
Protocol: 100%=620 moles of glutamine hydrolyzed per minute per mole of enzyme. Data represent the average of 3 experiments (±s.d.). […] Following precipitation of the beads and re-suspension, the samples were analyzed by Western blotting with anti-V5 antibody. […] Data represent the average of 3 experiments (±s.d.). […] Data represent the average of 3 experiments (±s.d.). […] Data represent the average of 3 experiments (±s.d.). FIG. 3E NIH 3T3 cells transiently expressing Dbl were assayed for focus formation in the presence of 10 μM 968 alone or together with 7 mM dimethyl α-ketoglutarate. […] 100%=680 nM glutamine hydrolyzed per minute per 10^5 cells. Data are the average of 3 experiments (±s.d.). […] 100%=750 nM glutamine hydrolyzed per minute per 10^5 cells. Data represent the average of 3 experiments (±s.d.).
FIGS. 4A-E illustrate the role of glutaminase C activity in cellular transformation. […] Data represent the average of 3 experiments (±s.d.). […] Data represent the average of 3 experiments (±s.d.). […] 100% represents the activity measured in untreated Dbl-transformed cells. The data represent the average of 2 experiments. […] 100% represents the activity measured in untreated SKBR3 cells. The data represent the average of 2 experiments. […] Data represent the average of 3 experiments (±s.d.).
FIGS. 11A-E illustrate the effects of different treatments on GA activity. […] The addition of Pi stimulated the GA activity in control 3T3 cells, Dbl-expressing cells, and Cdc42(F28L)-expressing cells by ˜6-fold, 2-fold, and 3-fold, respectively. 100% represents the Pi-stimulated activity measured for Dbl-transformed cells that were not treated with 968. Data is the average of 3 experiments (±s.d.). […] The addition of Pi stimulated the GA activity of HMECs, MDA-MB231 cells, and SKBR3 cells by ˜5-fold, 2-fold, and 1.4-fold, respectively. 100% represents the Pi-stimulated activity for SKBR3 cells that were not treated with 968. Data are the average of 3 experiments (±s.d.). […] Mitochondrial fractions were prepared from equal numbers of cells and assayed for GA activity in the presence or absence of 133 mM Pi. The data are plotted as the percentage of GA activity measured for untreated SKBR3 cells and represent the average of 2 experiments. […] 100% represents the Pi-stimulated activity measured for untreated Dbl-transformed cells. The data represent the average of 2 experiments. […] 100% represents the Pi-stimulated activity for untreated SKBR3 cells. The data represent the average of 2 experiments.
Dbl expressing NIH 3T3 cells were treated for 48 hours in the presence or absence of 968 (10 μM), Bay 11-7082 (2 μM) or Rapamycin (100 nM). Mitochondria were then isolated from the treated cells and assayed for glutaminase activity in the absence or presence of phosphate.
Mitochondrial preparations were obtained using the mitochondria isolation kit from QIAGEN (Cat #37612). A suspension containing 2×10^7 cells was transferred into a 50 ml conical tube and centrifuged at 500×g for 10 minutes at 4° C. The pellets were resuspended in 2 ml of ice-cold lysis buffer (supplied by QIAGEN) and incubated for 10 minutes at 4° C. using an end-over-end shaker. The lysates were centrifuged at 1000×g for 10 minutes at 4° C., and the pellets were resuspended in a buffer supplied by the manufacturer and disrupted completely by using a blunt-ended, 23-gauge needle and a syringe, followed by centrifugation at 6000×g for 20 minutes at 4° C. […]

CN(C)c1ccc(C2Nc3ccc4ccccc4c3C3=C2C(=O)CC(C)(C)C3)cc1Br (stereo not shown) [Compound 968, 5-[3-bromo-4-(dimethylamino)phenyl]-2,2-dimethyl-2,3,5,6-tetrahydrobenzo[a]]
growth in low serum (SKBR3 cells; 1% fetal bovine serum): inhibits their growth | growth to high density (SKBR3 cells; 10% fetal bovine serum, 6 days): inhibits their growth | GA activity of transformed cells [1]: inhibits their GA activity | sensitivity of basal versus phosphate-stimulated GA activity ([1]; with or without 133 mM Pi): basal activity being more sensitive than the phosphate-stimulated activity

Source: patent US20130252983A1, “ACTIVATING PHOSPHORYLATION SITE ON GLUTAMINASE C” (CORNELL UNIVERSITY, priority 2010, published 2013)
